Measured values taken from US20230140290A1, “SALICYLAMIDE DERIVATIVES AND RELATED METHODS OF MAKING” (THE BOARD OF REGENTS OF THE UNIVERSITY OF TEXAS SY, priority 2020, published 2023).
Read-outs that look alike come from different tables or passages of the source.

Experiments:
[1] = Maximum tolerated dose (MTD); details: immunosuppressed Syrian hamster, intraperitoneal
Procedure: Maximum tolerated dose (MTD). […] Before dosing, compounds were diluted in 10% DMSO, 10% Cremophor EL and 80% sodium chloride physiological solution. […] At day 14 animals were sacrificed with a lethal dose of thiopental. All inoculations were done via intraperitoneal.

[2] = system: HAdV5-GFP; details: read-out: IC50, inhibition of HAdV infection; Marrugal-Lorenzo et al. 2019; cited from earlier work
[3] = system: HAdV5; test: HAdV-mediated endosome disruption (α-sarcin co-delivery assay); assay type: cell-based, HAdV-5; details: FIG. 11; A549, 5 μM, independent of virus concentration
[4] = system: HAdV5-GFP; test: Plaque assay (inhibition of HAdV plaque formation); assay type: cell-based, HAdV-5; details: for inhibition at 10 µM: read-out: Plaque Assay (%) Inhibition (10 μM); for Selectivity index (SI): ratio of CC50 to IC50 in plaque assay
Summary of the method: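 Cells at 80-90% confluency infected with HAdV5-GFP at 0.06 vp/cell, rocked 2 h at 37° C, then washed with PBS. Compounds tested at 10 μM and in dose-response from 10 to 0.3 μM, included in the post-infection mixture.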

[5] = system: HAdV5-GFP; test: Entry assay (HAdV5-mediated GFP expression); assay type: cell-based, HAdV-5; details: for (%) Inhibition Entry Assay (50 μM): 48 h; for inhibition at 50 µM: A549, 48 h, read-out: (%) Inhibition Entry Assay (50 μM)
Procedure: Entry Assay. The anti-HAdV activity was measured in an entry assay using human A549 epithelial cells (3×10^5 cells/well in coming black wall, clear bottom 96-well plates) infected with HAdV5-GFP (2000 vp/cell) in the presence 50 μM of the candidates and in a dose-response assay. A standard infection curve was generated in parallel by infecting cells in the absence of compounds using serial 2-fold dilutions of virus. All reactions were done in triplicate. Cells, virus, and drugs were incubated for 48 h at 37° C. and 5% CO2.

[6] = system: wild-type HAdV5; test: HAdV DNA quantification by real-time PCR (DNA replication); assay type: cell-based, HAdV-5; details: 24 h
Procedure: DNA Quantification by Real-Time PCR. […] Infected cells were incubated 24 h at 37° C. in 500 μL of complete DMEM containing 25 μM of either compounds or the same volume of DMSO (positive control). All samples were done in duplicate. After 24 h of incubation at 37° C., DNA was purified from the cell lysate with the QIAamp DNA Mini Kit (QIAGEN, Valencia, Calif.) following the manufacturer's instructions. TaqMan primers and probes for a common region of the HAdV5 were designed with the GenScript Real-Time PCR (TaqMan) Primer Design software (GenScript). […] Real-time PCR mixtures consisted of 9.5 μL of the purified DNA, AQ1 and AQ2 at a concentration of 200 nM each and Probe at a concentration of 50 nM in a total volume of 25 μL. The PCR cycling protocol was 95° C. for 3 min followed by 40 cycles of 95° C. for 10 s and 60° C. for 30 s. Human glyceraldehyde-3-phosphate dehydrogenase (GAPDH) gene was used as internal control. Oligonucleotides sequences for GAPDH and conditions were those previously reported by Henke-Gendo et al. (2012).
For quantification, gene fragments from hexon, and GAPDH were cloned into the pGEM-T Easy vector (Promega) and known concentrations of template were used to generate a standard curve in parallel for each experiment. All assays were performed in thermal cycler LightCycler® 96 System (Roche).
(§1) HAdV DNA Quantification by Real-Time PCR. […] All samples were done in duplicate. After 24 h of incubation at 37° C., DNA was purified from the cell lysate with the E.Z.N.A.® Tissue DNA Kit (Omega Bio-tek, Norcross, Ga.) following the manufacturer's instructions. TaqMan primers and probes for a common region of the HAdV5 were designed with the GenScript Real-Time PCR (TaqMan) Primer Design software (GenScript). […] Real-time PCR mixtures consisted of 9.5 μL of the purified DNA, AQ1 and AQ2 at a concentration of 200 nM each and Probe at a concentration of 50 nM in a total volume of 25 μL. The PCR cycling protocol was 95° C. for 3 min followed by 40 cycles of 95° C. for 10 s and 60° C. for 30 s. Human glyceraldehyde-3-phosphate dehydrogenase (GAPDH) gene was used as internal control. Oligonucleotides sequences for GAPDH and conditions were those previously reported by Henke-Gendo et al. (2012).
as §1, with “DNA” for “HAdV DNA”

[7] = system: wild-type HAdV5; test: Nuclear-associated HAdV genomes (real-time PCR); assay type: cell-based, HAdV-5
Procedure: (§2) Nuclear-Associated HAdV Genomes. The nuclear delivery of HAdV genomes was assessed by real-time PCR following nuclear isolation from infected cells. […] Forty-five minutes after infection, A549 cells were trypsinized and collected and then washed twice with PBS. Then, cytoplasmic and nuclear fractions were separated using a hypotonic buffer solution and NP-40 detergent. The cell pellet was resuspended in 500 μL of 1×hypotonic buffer (20 mM Tris-HCl pH 7.4, 10 mM NaCl, 3 mM MgCl2) and incubated for 15 min at 4° C. Then, 25 μL of NP-40 was added and the samples were vortexed. The homogenates were centrifuged for 10 min at 835 g at 4° C. Following the removal of the cytoplasmic fraction (supernatant), HAdV DNA was isolated from the nuclear fraction (pellet) and from the cytoplasmic fraction using the QIAamp DNA Mini Kit (QIAGEN, Valencia, Calif.).
as §2, with “E.Z.N.A.® Tissue” for “QIAamp”, “DNA” for “DNA Mini”, “(Omega Bio-tek, Norcross, Ga.).” for “(QIAGEN, Valencia, Calif.).”

[8] = system: HAdV5-GFP; test: Time of addition assay; assay type: cell-based, HAdV-5
Procedure: (§3) Time of Addition Curve Study. […] Parallel samples of HAdV-5 were incubated with or without the selected derivatives on ice for 1 h. […] The derivatives were added at the indicated time points before or during this incubation. After a total of 2 h at 37° C., cells were incubated for an additional 48 h at 37° C. and 5% CO2 before being analyzed for GFP expression using the Typhoon 9410 imager (GE Healthcare Life Sciences) as above.
as §3, with “Assay.” for “Curve Study.”
as §3, with “Assay.” for “Curve Study.”, “compounds” for “derivatives”, “Compounds 153 and 161” for “The derivatives”

[9] = system: HCMV; test: HCMV DNA quantification by real-time PCR; assay type: cell-based, human cytomegalovirus; details: HFF cells, 72 h, 10-fold plaque IC50 (niclosamide 5 μM)
Procedure: HCMV DNA Quantification by Real-Time PCR. […] Then, cells were incubated for 72 h at 37° C. and 5% CO2 and HCMV DNA was purified from the cell lysate using the QIAamp DNA Mini Kit (Qiagen, Valencia, Calif.) following the manufacturer's instructions. Real-time PCR primers, mixtures and protocols were the same as previously reported (Sanchez-Cespedes et al., J. Med. Chem. 2016, 59, 5432-5448).

[10] = system: A549 cells; test: Cytotoxicity assay (AlamarBlue); details: read-out: CC50 (μM), cytotoxic concentration 50%; A549 cell line, 48 h
Procedure: (§4) Cytotoxicity Assay. The cytotoxicity of the compounds was analyzed by commercial kit AlamarBlue® (Invitrogen, Ref. DAL1025). A549 cells at a density of 5×10^3 cells per well in 96-well plates were seeded. […] Cells were then incubated at 37° C. for 48 h following the kit protocol. The cytotoxic concentration 50 (CC50) value was obtained using the statistical package GraphPad Prism. This assay was performed in duplicate.

[11] = Cytotoxicity assay (AlamarBlue); details: human, A549 cells
Procedure: as §4

[12] = read-out: Plaque Assay IC50 (μM), HAdV5-GFP, low MOI, 293β5 cell line
[13] = A549, read-out: IC50 Entry Assay (μM), HAdV5-GFP, high MOI, A549 cell line
[14] = FIG. 5A, 45 min post-infection, 10-fold plaque IC50

O=C(Nc1ccc([N+](=O)[O-])cc1Cl)c1cc(Cl)ccc1O [Compound 6, niclosamide, reference compound]
doses showing high toxicity [1]: ≥ 5 mg/kg | IC50 [2]: 600 nM | rate of HPG incorporation compared to a control without α-sarcin [3]: under 50% | Plaque Assay (%) Inhibition (10 μM) ([4]; HAdV5-GFP, 10 μM, low MOI, 293β5 cell line): 100 ± 0% | IC50 ([4]; HAdV5-GFP, low MOI, 293β5 cell line, read-out: Plaque Assay IC50): 0.6 µM | (%) Inhibition Entry Assay (50 μM) ([5]; HAdV5-GFP, high MOI, A549 cell line): 100.0 ± 0.0% | (%) Inhibition Entry Assay (50 μM) ([5]; HAdV5-GFP, high MOI, A549 cell line, listed as 73, 50 µM): 100 ± 0% | IC50 ([5]; HAdV5-GFP, high MOI, A549 cell line, read-out: IC50 Entry Assay): 1.22 ± 0.44 µM

O=C(Nc1ccc(C(F)(F)F)cc1Cl)c1cc(Cl)ccc1O [Compound 14, 5-Chloro-N-(2-chloro-4-(trifluoromethyl)phenyl)-2-hydroxybenzamide]
inhibition of HAdV-5 DNA replication (qPCR) ([6]; FIG. 4, concentrations by CC50 (2-50 μM)): significant (p≤0.0001) inhibitory activity | amount of nuclear-associated HAdV genomes versus DMSO ([7]; FIG. 3, 45 min post infection, concentrations by CC50 (2-50 μM)): partially inhibited | loss of inhibition when added between 5 and 10 min p.i. ([8]; FIG. 2, 10 μM): 20% | inhibition at 10 µM [4]: 100% | IC50 [4, 12]: 0.08 µM | inhibition at 50 µM [5]: 100% | IC50 [5, 13]: 1.67 ± 0.25 µM

O=C(Nc1ccc(NC2CCCC2)cc1Cl)c1cc(Cl)ccc1O [Compound 78, 5-Chloro-N-(2-chloro-4-(cyclopentylamino)phenyl)-2-hydroxybenzamide]
inhibition of HAdV-5 DNA replication (qPCR) ([6]; FIG. 6A, 10-fold plaque IC50): moderate inhibition | amount of nuclear-associated HAdV genomes versus DMSO [7, 14]: no significant differences | decrease of total HCMV DNA compared to the DMSO control [9]: no significant inhibition | Selectivity index (SI) [4]: 185.8 | inhibition at 10 µM [4]: 100% | IC50 [4, 12]: 0.5 ± 0.1 µM | CC50 [10]: 92.9 ± 7.1 µM | inhibition at 50 µM [5]: 27.5 ± 3.8% | IC50 [5, 13]: > 50 µM

CC(C)(C)OC(=O)N1CCC(CNc2ccc(NC(=O)c3cc(Cl)ccc3O)c(Cl)c2)CC1 [Compound 126, tert-Butyl 4-(((3-chloro-4-(5-chloro-2-hydroxybenzamido)phenyl)amino)methyl)piperidine-1-carboxylate]
amount of nuclear-associated HAdV genomes versus DMSO [7, 14]: partially inhibited | anti-HAdV activity when added between 10 and 20 min p.i. ([8]; FIG. 7, 10-fold plaque IC50): loses its anti-HAdV activity | Selectivity index (SI) [4]: 102.2 | inhibition at 10 µM [4]: 97.8 ± 1.4% | IC50 [4, 12]: 0.93 µM | CC50 at 48 h [11]: 95000 nM | inhibition at 50 µM [5]: 67.6% | IC50 [5, 13]: < 3.13 µM
